# Data from US10662159B2, “ABHD6 and dual ABHD6/MGL inhibitors and their uses” (MAKScientific, LLC, priority 2017, dated 2020).
# Tests used:
# Format in all cases: biochemical
# hABHD6 = hABHD6 (Homo sapiens (Human), UniProt Q9BV23); assay: Fluorescent assay for hABHD6 (AHMMCE substrate hydrolysis); conditions: membrane fraction containing full-length hABHD6, 20 μM AHMMCE; read-out: ABHD6 Inhibition IC50
# Procedure: (§1) Certain compounds were tested for their ABHD6 and dual ABHD6/MGL inhibitory activity, which is expressed as % of inhibition or IC50 values in Table 1. The percentage of inhibition describes the percentage by which the inhibitor reduces the velocity/rate of 2-AG hydrolysis by ABHD6, and MGL or AEA hydrolysis by FAAH. […] The lower the IC50 values, the higher its inhibitory activity. A detailed description of the methods used to test inhibitory activity of compounds is given below.
# Fluorescent Assays Protocol for hABHD6
# Initial Fluorescent Inhibition Assay (3-Point)—
# In each well of a 96-well plate 8 μL of membrane fraction containing full-length hABHD6 (1 μg total protein) was mixed with 168 μL of assay buffer (50 mM Tris-HCl, pH 7.6), and 20 μL of diluted compound (diluted in a dilution buffer consisting of 50% DMSO/50% assay buffer v/v). Each plate was incubated at RT for 15 minutes before adding 4 μL of 1 mM AHMMCE substrate (final concentration of 20 μM AHMMCE and final volume of 200 μL). The reaction was allowed to proceed for 1 hr at RT before the fluorescence was read at λex 360 nm and λem 460 nm and the inhibition calculated. Each experiment can test 8 compounds at three concentrations (usually 10 μM, 1 μM, and 100 nM).
# IC50 Determination Assay (8-Point)—
# A more detailed assay with an extended range tests compounds over 8 concentrations depending on the pre-determined approximate IC50 value from the initial screen. […] The assay was conducted in 96 well plate with each well containing the same reaction mixture detailed above in the 3-point screen. The relative fluorescence is quantified into coumarin produced by using a standard curve of HMMC in triplicate on each plate. Results are normalized to the negative control wells and the IC50 is determined using a non-linear regression curve fit in Prism, version 5 (GraphPad, San Diego, Calif.).
# hMGL = hMGL (Homo sapiens (Human), UniProt Q99685); assay: Fluorescent assay for hMGL (AHMMCE substrate hydrolysis); conditions: E. coli lysate containing hMGL, read-out: hMGL Inhibition IC50
# Procedure: as §1
# Preparation of Human MAGL (hMAGL)
# Fluorescent Assay Protocol for hMGL
# This medium throughput assay involved a 96-well plate format in which hMGL activity was monitored by the hydrolysis of the substrate […] (AHMMCE) to form the fluorescent product, coumarin. […] Upon the addition of AHMMCE, the reaction was incubated at 25° C. for 120 min; fluorescence readings were taken every 15 min at 360 nm/460 nm (λexcitation/λemission) using a Synergy HT Plate Reader (Bio-Tek, Winooski, Vt.). […] External standards were used to convert relative fluorescence units to the amount of 4-methylcoumarin formed. All MGL assays were performed in triplicate for each inhibitor concentration, and IC50 values were calculated using Prizm software (GraphPad Software, Inc., San Diego, Calif.).
# hFAAH = hFAAH (Homo sapiens (Human), UniProt O00519); assay: Fluorescent assay for hFAAH; conditions: MBP ΔTM hFAAH, procedure as for rFAAH; read-out: hFAAH Inhibition IC50
# Procedure: (§2) Certain compounds were tested for their ABHD6 and dual ABHD6/MGL inhibitory activity, which is expressed as % of inhibition or IC50 values in Table 1. The percentage of inhibition describes the percentage by which the inhibitor reduces the velocity/rate of 2-AG hydrolysis by ABHD6, and MGL or AEA hydrolysis by FAAH. The IC50 is the concentration of the inhibitor, which results in 50% inhibition of the velocity/rate of 2-AG hydrolysis by ABHD6 or MGL. The IC50 is the concentration of the inhibitor, which results in 50% inhibition of the velocity/rate of AEA hydrolysis by FAAH. The lower the IC50 values, the higher its inhibitory activity. A detailed description of the methods used to test inhibitory activity of compounds is given below.
# Example 80. Preparation of Human FAAH in Fusion with N-Terminal Maltose Binding Tag (MBP ΔTM hFAAH)
# Human FAAH without putative transmembrane domain following maltose binding protein was expressed in E. coli cells using pMALcE4 vector Alapafuja et al J. Med. Chem. (2012) 55: 10074-89.
# (§3) The fluorescence reading at the 3 hour time point (linear enzyme kinetics) was used to calculate percent inhibition based on control assays without inhibitor present. All FAAH assays were performed in triplicate for each inhibitor concentration, and IC50 values determined using Prizm software (GraphPad Software, Inc.).
# Example 82. Fluorescent Assay Protocol for hFAAH
# Procedure was followed as described for rFAAH.
# Rat ΔTM FAAH = Rat ΔTM FAAH (Rattus norvegicus (Rat), UniProt P97612); assay: Fluorescent assay for rat ΔTM FAAH (AAMCA substrate); conditions: ΔTM rFAAH, AAMCA 20 μM; read-out: rFAAH Inhibition IC50
# Procedure: as §2
# Example 79. Preparation of Transmembrane Domain-Deleted Rat FAAH (ΔTM rFAAH)
# Rat ΔTM FAAH was expressed in E. coli cells and purified using the procedure disclosed by Patricelli et al. Biochemistry (1998) 37: 15177-15187.
# Example 81. Fluorescent Assay Protocol for Rat ΔTM FAAH
# as §3
# Sequence of Rat ΔTM FAAH (P97612 30-579): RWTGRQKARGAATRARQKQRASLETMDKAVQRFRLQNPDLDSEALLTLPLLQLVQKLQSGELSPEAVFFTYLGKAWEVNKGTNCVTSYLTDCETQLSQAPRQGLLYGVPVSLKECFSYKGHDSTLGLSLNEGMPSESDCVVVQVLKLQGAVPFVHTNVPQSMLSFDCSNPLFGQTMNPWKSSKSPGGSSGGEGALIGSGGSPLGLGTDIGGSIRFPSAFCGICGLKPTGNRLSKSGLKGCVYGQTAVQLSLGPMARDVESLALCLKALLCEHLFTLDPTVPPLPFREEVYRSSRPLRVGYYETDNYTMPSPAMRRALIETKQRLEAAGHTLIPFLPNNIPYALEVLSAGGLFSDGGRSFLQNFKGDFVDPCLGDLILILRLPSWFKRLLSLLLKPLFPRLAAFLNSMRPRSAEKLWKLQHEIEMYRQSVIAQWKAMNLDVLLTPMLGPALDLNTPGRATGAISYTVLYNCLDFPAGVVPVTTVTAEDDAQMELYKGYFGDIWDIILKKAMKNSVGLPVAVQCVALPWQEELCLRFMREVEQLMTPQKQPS
# Sequence of hFAAH (O00519 30-579): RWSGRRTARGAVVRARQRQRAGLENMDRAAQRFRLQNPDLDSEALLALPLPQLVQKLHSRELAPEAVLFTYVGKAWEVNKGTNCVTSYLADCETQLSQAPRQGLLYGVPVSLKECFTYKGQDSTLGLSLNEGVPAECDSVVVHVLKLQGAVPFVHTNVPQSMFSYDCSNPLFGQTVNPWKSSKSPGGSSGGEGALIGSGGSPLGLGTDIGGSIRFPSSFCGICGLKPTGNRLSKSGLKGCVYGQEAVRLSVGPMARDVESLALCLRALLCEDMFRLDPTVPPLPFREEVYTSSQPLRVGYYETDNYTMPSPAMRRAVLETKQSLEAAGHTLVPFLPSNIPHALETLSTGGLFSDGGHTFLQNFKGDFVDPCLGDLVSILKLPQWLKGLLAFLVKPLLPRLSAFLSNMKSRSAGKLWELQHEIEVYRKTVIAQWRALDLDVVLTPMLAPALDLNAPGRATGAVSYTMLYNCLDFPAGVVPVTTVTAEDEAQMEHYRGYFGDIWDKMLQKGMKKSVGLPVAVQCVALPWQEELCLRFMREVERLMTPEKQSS
# Sequence of hABHD6 (Q9BV23 whole entry): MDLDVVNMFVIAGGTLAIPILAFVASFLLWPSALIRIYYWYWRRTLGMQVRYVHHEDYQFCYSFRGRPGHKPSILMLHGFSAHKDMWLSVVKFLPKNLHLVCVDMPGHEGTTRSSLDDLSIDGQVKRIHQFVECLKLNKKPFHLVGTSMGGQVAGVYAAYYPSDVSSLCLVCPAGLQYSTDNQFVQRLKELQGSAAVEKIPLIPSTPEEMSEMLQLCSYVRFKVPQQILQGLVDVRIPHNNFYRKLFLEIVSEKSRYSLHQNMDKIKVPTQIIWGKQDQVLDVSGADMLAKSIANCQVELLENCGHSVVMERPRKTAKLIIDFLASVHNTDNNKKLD
# Sequence of hMGL (Q99685 whole entry): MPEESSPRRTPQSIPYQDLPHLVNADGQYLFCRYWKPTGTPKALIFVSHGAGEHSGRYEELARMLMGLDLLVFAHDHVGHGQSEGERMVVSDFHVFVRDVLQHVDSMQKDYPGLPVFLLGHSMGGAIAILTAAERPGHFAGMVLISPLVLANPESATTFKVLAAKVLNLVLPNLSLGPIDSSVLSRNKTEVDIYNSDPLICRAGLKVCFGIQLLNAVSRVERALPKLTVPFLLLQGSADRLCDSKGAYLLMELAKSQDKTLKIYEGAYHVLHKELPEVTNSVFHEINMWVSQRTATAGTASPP
Structure (SMILES),IC50 (hABHD6),IC50 (hMGL),IC50 (hFAAH),IC50 (Rat ΔTM FAAH)
"O=C(OC(C(F)(F)F)C(F)(F)F)N1Cc2ccc(Br)cc2C1 [Example 8, 1,1,1,3,3,3-Hexafluoropropan-2-yl 5-bromoisoindoline-2-carboxylate]",10 to 100 nM,> 1000 nM,> 1000 nM,> 1000 nM
"CC1c2ccccc2CCN1C(=O)OC(C(F)(F)F)C(F)(F)F (racemic) [Example 6, 1,1,1,3,3,3-Hexafluoropropan-2-yl 1-methyl-3,4-dihydroisoquinoline-2(1H)-carboxylate]",> 1000 nM,> 1000 nM,> 1000 nM,> 1000 nM
"O=C(OC(C(F)(F)F)C(F)(F)F)N1Cc2cccc(Br)c2C1 [Example 12, 1,1,1,3,3,3-Hexafluoropropan-2-yl 4-bromoisoindoline-2-carboxylate]",100 to 1000 nM,> 1000 nM,> 1000 nM,> 1000 nM
"CC1c2ccc(Br)cc2CN1C(=O)OC(C(F)(F)F)C(F)(F)F (stereo not shown) [Example 15, 1,1,1,3,3,3-Hexafluoropropan-2-yl 5-bromo-1-methylisoindoline-2-carboxylate]",> 1000 nM,> 1000 nM,> 1000 nM,> 1000 nM
"O=C(OC(C(F)(F)F)C(F)(F)F)N1CCc2cc(Br)ccc2C1 [Example 17, 1,1,1,3,3,3-Hexafluoropropan-2-yl 6-bromo-3,4-dihydroisoquinoline-2(1H)-carboxylate]",10 to 100 nM,> 1000 nM,> 1000 nM,> 1000 nM
"O=C(OC(C(F)(F)F)C(F)(F)F)N1CCc2ccc(Br)cc2C1 [Example 18, 1,1,1,3,3,3-Hexafluoropropan-2-yl 7-bromo-3,4-dihydroisoquinoline-2(1H)-carboxylate]",100 to 1000 nM,> 1000 nM,> 1000 nM,> 1000 nM

# Continued, values first:
IC50 (hABHD6),IC50 (hMGL),IC50 (hFAAH),IC50 (Rat ΔTM FAAH),Structure (SMILES)
10 to 100 nM,10 to 100 nM,> 1000 nM,10 to 100 nM,"O=C(OC(C(F)(F)F)C(F)(F)F)N1CC[C@]2(C1)C[C@@H](OC(c1ccc(F)cc1)c1ccc(F)cc1)C2 [Example 67, 1,1,1,3,3,3-Hexafluoropropan-2-yl (2r,4s)-2-(bis(4-fluorophenyl)methoxy)-6-azaspiro[3.4]octane-6-carboxylate]"
10 to 100 nM,> 1000 nM,> 1000 nM,> 1000 nM,"CC1(C)C2C(=O)N(OC(=O)N3CC4(CC(Oc5cccc(C(F)(F)F)c5)C4)C3)C(=O)C21 (stereo not shown) [Example 63, 6,6-Dimethyl-2,4-dioxo-3-azabicyclo[3.1.0]hexan-3-yl 6-(3-(trifluoromethyl)phenoxy)-2-azaspiro[3.3]heptane-2-carboxylate]"
10 to 100 nM,> 1000 nM,> 1000 nM,> 1000 nM,"O=C(OC(C(F)(F)F)C(F)(F)F)N1CC2(CC(Oc3cncc(F)c3)C2)C1 [Example 60, 1,1,1,3,3,3-Hexafluoropropan-2-yl 6-((5-fluoropyridin-3-yl)oxy)-2-azaspiro[3.3]heptane-2-carboxylate]"
100 to 1000 nM,> 1000 nM,> 1000 nM,> 1000 nM,"CC1CN(C(=O)OC(C(F)(F)F)C(F)(F)F)Cc2ccccc21 (stereo not shown) [Example 20, 1,1,1,3,3,3-Hexafluoropropan-2-yl 4-methyl-3,4-dihydroisoquinoline-2(1H)-carboxylate]"
